We go through ten compounds from patent US4073917A, “Local anesthetics tertiary aminoalkoxyphenyl ethers” (priority 1974, dated 1978).

One data set concerns sciatic nerve. The data set can be described thus: infiltration anesthesia, sciatic nerve block in the intact guinea-pig (Shackell). It is filed as in vivo. The method, then:
B. The compounds according to the invention were also tested as to onset and duration of local anesthetic effect at parenteral administration (infiltration anesthesia). […] Four animals were used at each test. The results are depicted in the following table:
The reference compound being used at this test is 2-(N-ethyl-n-propylamino)-2',6'-n-butyroxylidide (etidocaine).

The subject of data set [1] is back of the guinea-pig (intact skin). The data set can be described thus: surface anesthesia by epicutaneous application to intact skin, pricking test as in the intracutaneous wheal test. It is filed as in vivo, guinea-pig (Dunkin-Hartley, males). The settings on record: for Local anesthetic efficiency (percentage block during the 25 min testing period): ± s.e.m. The source says: A. Guinea-pigs (Dunkin-Hartley, males, 4-6 weeks of age 350±50 g) were shaved and depilated. A gauze folded twice (23 mm diameter) was put into the test solution and thereafter in a plastic cup (outer diameter 26 mm, inner diameter 24 mm, inner height 4 mm). The cup with the gauze saturated with test solution was attached to the back of the animal as an occlusive dressing fastened with plaster (25 mm width) wound around the body). […] After the end of the contact time the site of contact was washed and marked with a fatty chalk. With a sharp instrument (e.g. cannula or a pair of tweezers) the place was pricked six times and registering was made as in the intracutaneous wheal test (Bulbring-Wajda: J. Pharmacol., 1945, 85, p 78) on the back of the guinea-pig, i.e. by registering the presence or absence of a characteristic ripple of the skin of the back of the animal. Every pricking which gives no skin contraction was counted. The test was repeated at regular intervals of 5 min, during an interval of 30 min from the end of the application period. The test gives an indication of onset time, depth and duration of block. The percentage block during the 25 min testing period was used as an index for efficiency. The test solution consisted of the test compound (base) dissolved to 10% (w/v, g/ml) in a mixture of isopropanol (65%: v/v), glycerol (25%: v/v) and water (10%: v/v).
The compound according to Example 1 (RAP 411) was tested also with varying concentrations and in the form of a hydrochloride salt in aqueous solution.

Data set [2] in a line: acute toxicity in mice (LD 50). The conditions noted are these: mouse, in vivo. The method, then: C. The acute toxicity for the base forms of a number of the new compounds were tested in mice.
A further data set deals with mice. The settings on record: s.c.; taken from Adams et al; cited from earlier work.
The mark [3] stands for this setting: 10% (w/v) base in isopropanol 65%/glycerol 25%/water 10%, time of contact 30 min.
Where [4] appears, read: 5% base in the alcoholic mixture.
[5] abbreviates: 10% hydrochloride in aqueous solution.

On to `CCN(CC)CC(=O)Nc1c(C)cccc1C` [Lidocaine, diethylaminoacet-2,6-xylidide], for which, in the data set with sciatic nerve (conc. 2.0%, pH 6.9), the “Flexion reflex block, duration” value is 57 ± 7 min; the “Flexion reflex block, onset” value lay in the range of 1 to 2 min; the “Motor paralysis, duration” value was determined as 78 ± 5 min; the “Motor paralysis, onset” value was 1 min.
Consider `CC(C)COc1ccccc1OCCN(C(C)C)C(C)C` [Example 3, 1-Isobutoxy-2-(2'-diisopropylaminoethoxy)-benzene], for which the “Local anesthetic efficiency (percentage block during the 25 min testing period)” value in data set [1] (setting [3]) is recorded as 97.2 ± 2.8%. Besides, the LD50 in data set [2] (iv) came out at 14 mg/kg; in data set [2] (sc), 300 mg/kg.
Regarding `CCCCOc1ccccc1OCCN(C(C)C)C(C)C` [Example 1, 1-n-Butoxy-2-(2'-diisopropylaminoethoxy)-benzene], in data set [1] (setting [4]), the anesthesia result is “complete anesthesia” and the “duration of complete anesthesia” value is “at least 30 min”. In addition, the “Local anesthetic efficiency (percentage block during the 25 min testing period)” value in data set [1] (setting [3]) is on record as 99.3 ± 0.7%. Besides, in the data set on sciatic nerve (conc. 0.5%, pH 6.0), the “Flexion reflex block, onset” value amounted to 1 min and the “Motor paralysis, onset” value was 1 min. In addition, the LD50 in data set [2] (iv) came out at 15 mg/kg. This compound also gave a median lethal dose (LD50) in data set [2] (sc) of 250 mg/kg.
`CCN(CC)CCOc1ccccc1OCC(C)C` [Example 4, 1-Isobutoxy-2-(2'-diethylaminoethoxy)-benzene]: the “Local anesthetic efficiency (percentage block during the 25 min testing period)” value in data set [1] (setting [3]) is on record as 97.2 ± 2.8%. The compound further registered a median lethal dose (LD50) in data set [2] (iv) of 18 mg/kg.
`CCCCOc1ccccc1OCCN1CCCCC1` [Example 6, 1-n-Butoxy-2-(2'-piperidinoethoxy)-benzene]: the “Local anesthetic efficiency (percentage block during the 25 min testing period)” value in data set [1] (10% (w/v) base in alcoholic mixture, time of contact 15 min) worked out at 79.2 ± 12.6%. The median lethal dose (LD50) in data set [2] (iv) was determined as 9 mg/kg.
Turning to `CCN(CC)CCOc1ccccc1OC` [RAP 419, o-methoxy-(diethylaminoethoxy)-benzene, reference compound], the “Local anesthetic efficiency (percentage block during the 25 min testing period)” value in data set [1] (setting [3]) amounted to 0%.
Regarding `CCCCOc1ccccc1OCCN(C(C)C)C(C)C.Cl` [RAP 411 hydrochloride, 1-n-butoxy-2-(2'-diisopropylaminoethoxy)-benzene hydrochloride], in data set [1] (setting [5]), the anesthesia result is recorded as “complete anesthesia” and the “duration of complete anesthesia” value is “at least 30 min”.
With `CCCN(CC)C(CC)C(=O)Nc1c(C)cccc1C` (centres unmarked) [Etidocaine, 2-(N-ethyl-n-propylamino)-2',6'-n-butyroxylidide], in the data set with sciatic nerve (conc. 0.5%, pH 6.0), the “Flexion reflex block, duration” value came out at 84 ± 17 min; the “Flexion reflex block, onset” value was in the range of 1 to 2 min; the “Motor paralysis, duration” value came out at 131 ± 13 min; the “Motor paralysis, onset” value turned out to be 1 min. The “LD 50 (base)” value in the data set on mice is on record as 99 mg/kg.
For the compound `CCCOc1ccccc1OCCN(C(C)C)C(C)C` [Example 2, 1-n-Propoxy-2-(2'-diisopropylaminoethoxy)-benzene], the “Local anesthetic efficiency (percentage block during the 25 min testing period)” value in data set [1] (setting [3]) was determined as 98.6 ± 0.8%.
With `CCN(CC)CCCOc1ccccc1OCC(C)C` [Example 5, 1-Isobutoxy-2-(3'-diethylaminopropoxy)-benzene], the “Local anesthetic efficiency (percentage block during the 25 min testing period)” value in data set [1] (setting [3]) turned out to be 75.7 ± 9.4%. In addition, in data set [2] (iv), the LD50 was determined as 14 mg/kg.
